Three sequences from patent US20140234350A1, “OVARIAN CANCER VACCINES AND VACCINATION METHODS” (Cedars-Sinai Medical Center, priority 2013, published 2014) can be followed below.

For this assay, the system named is antigen-specific CTLs (CD8+ T cells) against T2 cells pulsed with CD133 HLA-A2 peptides. As to the kind of experiment: IFN-γ ELISPOT assay of antigen-specific T cell response. It is filed as cell-based, human. Conditions: peptide-induced CTLs co-cultured with T2 cells pulsed with 10 μg/ml of peptides for 20 hours, compared with T2 control (no peptides); FIG. 3. The procedure:
To test this hypothesis, effector CD8^+ T cells were isolated and co-cultured with HLA-A2+ DC pulsed with CD133 peptides to induce antigen-specific CTLs. Antigens-specific T cell responses were evaluated by an IFN-γ ELISPOT assay.
Human monocyte-derived DC was generated using previously described methods. Briefly, monocytes were isolated from PBMC by magnetic immunoselection using EasySep human monocyte enrichment kit (Stem Cell Technologies) in accordance with the manufacturer's instructions and then cultured at […] in 20 ml of GMP CellGenix DC serum-free medium (Cat#20801-0500, Cellgenix) supplemented with 1000 unit/ml of recombinant human GM-CSF (Cat#AF-300-03, Peprotech, Inc) and recombinant human IL-4(Cat# AF-200-04, Peprotech, Inc). Cells were harvested after 3 or 6 days of culture. The DCs were washed and plated in 6-well plates at a concentration of 5×10^6 cells/well IFN-γ (1000 unit/ml) and monophosphoryl lipid A (MPLA, 20-50 μg/ml) was added into the wells to mature the DC for 24 hr or 48 hrs. Prior to some assays, DC was frozen and stored into liquid nitrogen.
In order to evaluate antigen-specific immune responses, CD8^+ T cells were isolated from fresh or frozen apheresis by positive selection using Dynabeads® CD8 Positive Isolation Kit (Life Technologies, Grand Island, N.Y.) and co-cultured with autologous mDC for four weeks. DCs were added weekly. Briefly, mDC was pulsed with synthetic peptides ([…]) for 6-8 hours at 37° C., and then treated with 20 μg/ml Mitomycin C (Sigma-Aldrich, St. Louis, Mo.) for 25 min at 37° C. and 5% CO2. […]
Antigen-specific immune responses were evaluated by the IFN-γ Elispot kit (BD Biosciences) following previously described methods. […] The colored spots, representing cytokine-producing cells, were counted under a dissecting microscope. The results were evaluated by an automated ELISPOT reader system using KS ELISPOT 4.3 software.
As for “FLLPALIFAV (listed as Homo sapiens) [CD133p804, CD133 HLA-A2 peptide, position 804-813]”, the “antigen-specific T cell response (IFN-γ ELISPOT)” value is “can efficiently recognize T2 pulsed with these antigens and boost the T cell immune response”.
In the case of “ILSAFSVYV (listed as Homo sapiens) [CD133p405, CD133 HLA-A2 peptide, position 405-413]” it was “can efficiently recognize T2 pulsed with these antigens and boost the T cell immune response”; in that of “YLQWIEFSI (listed as Homo sapiens) [CD133p753, CD133 HLA-A2 peptide]”, “can efficiently recognize T2 pulsed with these antigens and boost the T cell immune response”.
